Assay results as given in ChEMBL document CHEMBL4177736, “Monoterpene indole alkaloid azine derivatives as MDR reversal agents” (Bioorg Med Chem, 2018).
Calls of active or inactive are those of the source. The rule behind the calls is not given here.

What was measured:
BHK-21 [1] = assay: Cytotoxicity against MRP1-expressing BHK21 cells assessed as growth inhibition at 20 uM after 72 hrs by MTT assay; format: functional; settings: Mesocricetus auratus; for inhibition of growth at 20 µM: BHK-21, 72 h, read-out: GI
BHK-21 [2] = assay: Cytotoxicity against wild type BHK21 cells assessed as reduction in cell viability at 20 uM after 72 hrs by MTT assay; format: cell-based, Mesocricetus auratus; settings: hamster, bhk-21, 72 h
NIH3T3 [3] = assay: Cytotoxicity against MDR1-expressing mouse NIH/3T3 cells assessed as growth inhibition at 20 uM after 72 hrs by MTT assay; format: functional, cell-based
NIH3T3 [4] = assay: Cytotoxicity against mouse NIH/3T3 cells assessed as reduction in cell viability at 20 uM after 72 hrs by MTT assay; format: cell-based; settings: nih3t3, 72 h
MRP1 = MRP1 (Homo sapiens, UniProt P33527); assay: Inhibition of MRP1 (unknown origin) expressed in HEK293FlpIN cells assessed as reduction in calcein-AM efflux at 20 uM incubated for 30 mins by flow cytometric analysis relative to control; format: cell-based; settings: HEK293FlpIN cells expressing MRP1, probe calcein-AM
Chain of MRP1 (P33527 whole entry): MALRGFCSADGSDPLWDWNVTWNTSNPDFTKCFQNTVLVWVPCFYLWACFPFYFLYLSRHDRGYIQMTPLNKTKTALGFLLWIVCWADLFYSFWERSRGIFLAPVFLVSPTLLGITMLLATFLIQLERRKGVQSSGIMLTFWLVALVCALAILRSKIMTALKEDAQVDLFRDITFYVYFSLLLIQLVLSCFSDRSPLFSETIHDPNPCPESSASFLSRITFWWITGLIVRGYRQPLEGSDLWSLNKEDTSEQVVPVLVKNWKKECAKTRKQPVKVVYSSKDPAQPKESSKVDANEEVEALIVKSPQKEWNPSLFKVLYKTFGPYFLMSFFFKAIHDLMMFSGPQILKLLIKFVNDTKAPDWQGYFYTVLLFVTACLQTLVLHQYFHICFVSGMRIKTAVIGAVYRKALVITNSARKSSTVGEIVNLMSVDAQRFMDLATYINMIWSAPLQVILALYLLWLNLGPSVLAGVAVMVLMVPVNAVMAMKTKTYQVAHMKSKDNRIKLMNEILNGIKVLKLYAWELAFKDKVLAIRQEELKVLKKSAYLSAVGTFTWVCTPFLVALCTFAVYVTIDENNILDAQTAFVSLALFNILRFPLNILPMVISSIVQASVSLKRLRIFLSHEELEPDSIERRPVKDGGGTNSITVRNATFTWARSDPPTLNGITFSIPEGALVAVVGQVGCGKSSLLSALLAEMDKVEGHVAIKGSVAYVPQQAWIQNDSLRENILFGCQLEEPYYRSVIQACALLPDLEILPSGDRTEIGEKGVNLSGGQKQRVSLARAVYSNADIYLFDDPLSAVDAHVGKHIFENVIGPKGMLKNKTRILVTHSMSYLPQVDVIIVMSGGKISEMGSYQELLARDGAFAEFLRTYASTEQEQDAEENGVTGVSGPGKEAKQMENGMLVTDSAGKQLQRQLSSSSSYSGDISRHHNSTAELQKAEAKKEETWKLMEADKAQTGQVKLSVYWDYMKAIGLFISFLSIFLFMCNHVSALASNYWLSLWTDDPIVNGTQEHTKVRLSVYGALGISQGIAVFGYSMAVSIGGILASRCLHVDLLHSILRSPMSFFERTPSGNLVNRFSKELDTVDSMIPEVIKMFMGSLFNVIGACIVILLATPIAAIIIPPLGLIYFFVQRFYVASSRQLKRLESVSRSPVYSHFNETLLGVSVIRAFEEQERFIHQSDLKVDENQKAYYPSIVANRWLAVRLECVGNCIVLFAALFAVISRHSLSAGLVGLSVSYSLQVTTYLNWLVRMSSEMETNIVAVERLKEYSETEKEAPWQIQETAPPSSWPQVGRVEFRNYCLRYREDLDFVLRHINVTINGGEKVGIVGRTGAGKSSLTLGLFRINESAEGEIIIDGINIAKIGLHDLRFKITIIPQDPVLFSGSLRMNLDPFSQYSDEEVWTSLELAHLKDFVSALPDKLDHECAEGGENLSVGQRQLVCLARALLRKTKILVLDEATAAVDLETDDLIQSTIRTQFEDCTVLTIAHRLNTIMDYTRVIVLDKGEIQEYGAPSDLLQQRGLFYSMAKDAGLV

[5] = Inhibition of P-gp (unknown origin) expressed in mouse NIH/3T3 cells assessed as reduction in rhodamine 123 efflux at 20 uM incubated for 30 mins by flow cytometric analysis relative to control; format: cell-based; settings: Homo sapiens
BCRP (ABCG2) = target: T1, BCRP (ABCG2) (Homo sapiens, UniProt Q9UNQ0); assay: Inhibition of BCRP (unknown origin) expressed in HEK293 cells assessed as reduction in mitoxantrone efflux at 20 uM incubated for 30 mins by flow cytometric analysis relative to control; format: cell-based; settings: HEK293 cells expressing BCRP, probe mitoxantrone
T1 sequence (Q9UNQ0 whole entry): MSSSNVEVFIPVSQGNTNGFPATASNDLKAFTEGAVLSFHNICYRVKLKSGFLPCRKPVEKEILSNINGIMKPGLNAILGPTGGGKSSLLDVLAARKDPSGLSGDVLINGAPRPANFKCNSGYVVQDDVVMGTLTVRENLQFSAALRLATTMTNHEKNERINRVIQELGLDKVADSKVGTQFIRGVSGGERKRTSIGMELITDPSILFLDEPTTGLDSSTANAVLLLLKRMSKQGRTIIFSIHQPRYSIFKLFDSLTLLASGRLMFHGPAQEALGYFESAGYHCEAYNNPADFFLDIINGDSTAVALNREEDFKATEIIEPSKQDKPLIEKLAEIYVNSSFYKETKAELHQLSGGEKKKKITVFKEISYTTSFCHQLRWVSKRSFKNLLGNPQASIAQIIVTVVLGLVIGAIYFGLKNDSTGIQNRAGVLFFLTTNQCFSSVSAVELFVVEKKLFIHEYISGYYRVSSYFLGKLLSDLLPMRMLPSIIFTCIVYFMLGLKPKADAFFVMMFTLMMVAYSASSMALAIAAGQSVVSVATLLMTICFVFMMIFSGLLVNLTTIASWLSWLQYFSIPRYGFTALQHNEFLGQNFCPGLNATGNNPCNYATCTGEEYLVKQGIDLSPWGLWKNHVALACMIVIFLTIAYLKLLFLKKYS

Homo sapiens [6] = species: Homo sapiens; assay: Inhibition of P-gp (unknown origin) expressed in mouse NIH/3T3 cells assessed as reduction in rhodamine 123 efflux at 10 uM incubated for 30 mins by flow cytometric analysis relative to control; format: cell-based
Homo sapiens [7] = species: Homo sapiens; assay: Inhibition of P-gp (unknown origin) expressed in mouse NIH/3T3 cells assessed as reduction in rhodamine 123 efflux at 1 uM incubated for 30 mins by flow cytometric analysis relative to control; format: cell-based
[8] = target: T2, Multidrug resistance-associated protein 1 (Homo sapiens, UniProt P33527); assay: Inhibition of MRP1 (unknown origin) expressed in BHK21 cells assessed as GSH efflux at 20 uM incubated for 3 hrs measured every 30 secs for 2 mins by GSH reductase enzyme based assay (reference value: 100%); format: cell-based; settings: 3 h, 20 µM
T2 sequence (P33527 whole entry): as the sequence (P33527 whole entry) above

[9] = target: T2, Multidrug resistance-associated protein 1; assay: Inhibition of MRP1 (unknown origin) expressed in HEK293FlpIN cells assessed as reduction in calcein-AM efflux incubated for 30 mins by flow cytometric analysis; format: cell-based
[10] = target: T2, Multidrug resistance-associated protein 1; assay: Inhibition of MRP1 (unknown origin) expressed in HEK293FlpIN cells assessed as potentiation of vincristine-induced cytotoxicity by measuring decrease in cell growth at 10 to 20 uM after 72 hrs by MTT assay relative to control; format: cell-based; parameters: scale not given: the % may be the effect or the level left
[11] = Cytotoxicity against HEK293FlpIN cells assessed as reduction in cell viability at 10 to 20 uM after 72 hrs by MTT assay; format: cell-based; settings: human
Homo sapiens [12] = species: Homo sapiens; assay: Cytotoxicity against MRP1-expressing HEK293FlpIN cells assessed as reduction in cell viability at 10 to 20 uM after 72 hrs by MTT assay; format: functional, cell-based
Homo sapiens [13] = species: Homo sapiens; assay: Inhibition of P-gp (unknown origin) expressed in mouse NIH/3T3 cells assessed as potentiation of paclitaxel-induced cytotoxicity by measuring decrease in cell viability at 10 to 20 uM after 72 hrs by MTT assay; format: cell-based
Homo sapiens [14] = species: Homo sapiens; settings: 5 uM
Description: Inhibition of P-gp (unknown origin) expressed in mouse NIH/3T3 cells assessed as reduction in rhodamine 123 efflux at 5 uM incubated for 30 mins by flow cytometric analysis relative to control

Homo sapiens [15] = species: Homo sapiens; assay: Inhibition of P-gp (unknown origin) expressed in mouse NIH/3T3 cells assessed as potentiation of paclitaxel-induced cytotoxicity by measuring decrease in cell viability at 10 uM after 72 hrs by MTT assay; format: cell-based

| Compound | inhibition at 0.5 h, 20 µM (MRP1) | inhibition (INH) [8] | IC50 [9] | inhibition (INH) ([9]; human, 0.5 h) | inhibition of growth at 20 µM (BHK-21 [1]) | Activity (BHK-21 [2]) | growth inhibition (GI) (NIH3T3 [3]) | Activity (NIH3T3 [4]) | inhibition [5] | inhibition at 0.5 h, 20 µM (BCRP (ABCG2)) | inhibition (Homo sapiens [6]) | inhibition (Homo sapiens [7]) | growth inhibition (GI) (BHK-21 [1]) | Activity [10] | Activity [11] | inhibition (Homo sapiens [12]) | inhibition (Homo sapiens [13]) | inhibition (Homo sapiens [14]) | inhibition (Homo sapiens [15]) |
| --- | --- | --- | --- | --- | --- | --- | --- | --- | --- | --- | --- | --- | --- | --- | --- | --- | --- | --- | --- |
| CC[C@@H]1CN(C)[C@H]2Cc3c([nH]c4ccccc34)/C(=N/N=C\c3c[nH]c4ccccc34)C[C@H]1[C@H]2C(=O)OC | 50.2% | – | – | – | 90 to 98% | Non-Toxic | Active | Non-Toxic | 102% | 4.2% | 70% | 18% | – | – | – | – | – | – | – |
| CC[C@@H]1CN(C)[C@H]2Cc3c([nH]c4ccccc34)/C(=N/N=C\c3ccc(O)c(OC)c3)C[C@H]1[C@H]2C(=O)OC | 87.3% | Not Active | > 1 µM | Dose-dependent effect | – | Non-Toxic | Active | Non-Toxic | 24.3% | 9% | – | – | Active | 60% | Non-Toxic | inactive | – | – | – |
| COc1cc2c(cc1OC)CN(CCc1ccc(NC(=O)c3cccc4c(=O)c5cccc(OC)c5[nH]c34)cc1)CC2 | – | – | – | – | – | – | – | – | – | – | – | – | – | – | – | – | – | 100% | – |

The next lines start with results.

| inhibition at 0.5 h, 20 µM (MRP1) | inhibition (INH) [8] | IC50 [9] | inhibition (INH) ([9]; human, 0.5 h) | Compound | inhibition of growth at 20 µM (BHK-21 [1]) | Activity (BHK-21 [2]) | growth inhibition (GI) (NIH3T3 [3]) | Activity (NIH3T3 [4]) | inhibition [5] | inhibition at 0.5 h, 20 µM (BCRP (ABCG2)) | inhibition (Homo sapiens [6]) | inhibition (Homo sapiens [7]) | growth inhibition (GI) (BHK-21 [1]) | Activity [10] | Activity [11] | inhibition (Homo sapiens [12]) | inhibition (Homo sapiens [13]) | inhibition (Homo sapiens [14]) | inhibition (Homo sapiens [15]) |
| --- | --- | --- | --- | --- | --- | --- | --- | --- | --- | --- | --- | --- | --- | --- | --- | --- | --- | --- | --- |
| 20.4% | – | – | – | CC[C@H]1CN(C)[C@H]2Cc3c([nH]c4ccccc34)/C(=N/N=C\c3ccc(C)cc3)C[C@H]1[C@H]2C(=O)OC | 90 to 98% | Non-Toxic | Active | Non-Toxic | 86.1% | 2.4% | – | – | – | – | – | – | Active | – | – |
| 8.8% | – | – | – | CC[C@@H]1CN(C)[C@H]2Cc3c([nH]c4ccccc34)/C(=N/N=C\c3ccc(C)cc3)C[C@H]1[C@H]2C(=O)OC | 90 to 98% | Non-Toxic | Active | Non-Toxic | 73.8% | 1.7% | – | – | – | – | – | – | – | – | Active |
| 70.5% | – | – | – | CC[C@H]1CN(C)[C@H]2Cc3c([nH]c4ccccc34)/C(=N/N=C\c3c[nH]c4ccccc34)C[C@H]1[C@H]2C(=O)OC | 90 to 98% | Non-Toxic | Active | Non-Toxic | 116% | 4.9% | 73% | 38% | – | – | – | – | – | – | – |
